Assay results taken from patent US11542240B2, “STK19 inhibitors for treatment of cancer” (TRUSTEES OF BOSTON UNIVERSITY, priority 2018, dated 2023).
Read-outs that look alike come from different tables or passages of the source.

What was measured:
Test in all cases: biochemical
Format in all cases: binding
[1] = target: panel of 468 diverse kinases (Homo sapiens, UniProt Q16513); conditions: PKN2; 1000 nM; read-out: Percent Control
[2] = target: panel of 468 diverse kinases (Homo sapiens, UniProt O14733); conditions: MKK7; 1000 nM; read-out: Percent Control
[3] = target: panel of 468 diverse kinases (Homo sapiens, UniProt Q13523); conditions: PRP4; 1000 nM; read-out: Percent Control
[4] = target: panel of 468 diverse kinases (Homo sapiens, UniProt P10721, A829P); conditions: KIT(A829P); 1000 nM; read-out: Percent Control
[5] = target: panel of 468 diverse kinases (Homo sapiens, UniProt Q6ZWH5); conditions: NEK10; 1000 nM; read-out: Percent Control
[6] = target: panel of 468 diverse kinases (Homo sapiens, UniProt P00519, F317L); conditions: 1000 nM, read-out: Percent Control
[7] = target: panel of 468 diverse kinases (Homo sapiens, UniProt Q9UPE1); conditions: SRPK3; 1000 nM; read-out: Percent Control
[8] = target: panel of 468 diverse kinases (Homo sapiens, UniProt P23443); conditions: S6K1; 1000 nM; read-out: Percent Control
[9] = target: panel of 468 diverse kinases (Homo sapiens, UniProt Q9H4A3); conditions: WNK1; 1000 nM; read-out: Percent Control
[10] = target: panel of 468 diverse kinases (Homo sapiens, UniProt Q9Y2I7); conditions: PIKFYVE; 1000 nM; read-out: Percent Control
[11] = target: panel of 468 diverse kinases (Homo sapiens, UniProt Q13976); conditions: PRKG1; 1000 nM; read-out: Percent Control
[12] = target: panel of 468 diverse kinases (Homo sapiens, UniProt P53350); conditions: PLK1; 1000 nM; read-out: Percent Control
[13] = target: panel of 468 diverse kinases (Homo sapiens, UniProt P32298); conditions: GRK4; 1000 nM; read-out: Percent Control
[14] = target: panel of 468 diverse kinases (Homo sapiens, UniProt Q9Y2H1); conditions: NDR2; 1000 nM; read-out: Percent Control
[15] = target: panel of 468 diverse kinases (Homo sapiens, UniProt P51813); conditions: BMX; 1000 nM; read-out: Percent Control
[16] = target: panel of 468 diverse kinases (Homo sapiens, UniProt P06239); conditions: LCK; 1000 nM; read-out: Percent Control
[17] = target: panel of 468 diverse kinases (Homo sapiens, UniProt Q8WU08); conditions: YANK1; 1000 nM; read-out: Percent Control
[18] = target: panel of 468 diverse kinases (Homo sapiens, UniProt Q96PN8); conditions: TS SK3; 1000 nM; read-out: Percent Control
[19] = target: panel of 468 diverse kinases (Homo sapiens, UniProt Q13554); conditions: CAMK2B; 1000 nM; read-out: Percent Control
[20] = target: panel of 468 diverse kinases (Homo sapiens, UniProt Q06187); conditions: BTK; 1000 nM; read-out: Percent Control
[21] = target: panel of 468 diverse kinases (Homo sapiens, UniProt Q14004); conditions: read-out: Percent Control
[22] = target: panel of 468 diverse kinases (Homo sapiens, UniProt Q16816); conditions: PHKG1; 1000 nM; read-out: Percent Control
[23] = target: panel of 468 diverse kinases (Homo sapiens, UniProt P42336, M1043I); conditions: PIK3CA(M1043I); 1000 nM; read-out: Percent Control
[24] = target: panel of 468 diverse kinases (Homo sapiens, UniProt Q9Y616); conditions: IRAK3; 1000 nM; read-out: Percent Control
[25] = target: panel of 468 diverse kinases (Homo sapiens, UniProt Q9Y3S1); conditions: WNK2; 1000 nM; read-out: Percent Control
[26] = target: panel of 468 diverse kinases (Homo sapiens, UniProt P24723); conditions: PRKCH; 1000 nM; read-out: Percent Control
[27] = target: panel of 468 diverse kinases (Homo sapiens, UniProt P10721, D816V); conditions: KIT(D816V); 1000 nM; read-out: Percent Control
[28] = target: panel of 468 diverse kinases (Homo sapiens, UniProt O00329); conditions: PIK3CD; 1000 nM; read-out: Percent Control
[29] = target: panel of 468 diverse kinases (Homo sapiens, UniProt P45985); conditions: MEK4; 1000 nM; read-out: Percent Control
[30] = target: panel of 468 diverse kinases (Homo sapiens, UniProt P21860); conditions: ERBB3; 1000 nM; read-out: Percent Control
[31] = target: panel of 468 diverse kinases (Homo sapiens, UniProt Q00537); conditions: PCTK2; 1000 nM; read-out: Percent Control

Chain of panel of 468 diverse kinases (Homo sapiens, UniProt Q13976) (Q13976 2-671 limits assumed): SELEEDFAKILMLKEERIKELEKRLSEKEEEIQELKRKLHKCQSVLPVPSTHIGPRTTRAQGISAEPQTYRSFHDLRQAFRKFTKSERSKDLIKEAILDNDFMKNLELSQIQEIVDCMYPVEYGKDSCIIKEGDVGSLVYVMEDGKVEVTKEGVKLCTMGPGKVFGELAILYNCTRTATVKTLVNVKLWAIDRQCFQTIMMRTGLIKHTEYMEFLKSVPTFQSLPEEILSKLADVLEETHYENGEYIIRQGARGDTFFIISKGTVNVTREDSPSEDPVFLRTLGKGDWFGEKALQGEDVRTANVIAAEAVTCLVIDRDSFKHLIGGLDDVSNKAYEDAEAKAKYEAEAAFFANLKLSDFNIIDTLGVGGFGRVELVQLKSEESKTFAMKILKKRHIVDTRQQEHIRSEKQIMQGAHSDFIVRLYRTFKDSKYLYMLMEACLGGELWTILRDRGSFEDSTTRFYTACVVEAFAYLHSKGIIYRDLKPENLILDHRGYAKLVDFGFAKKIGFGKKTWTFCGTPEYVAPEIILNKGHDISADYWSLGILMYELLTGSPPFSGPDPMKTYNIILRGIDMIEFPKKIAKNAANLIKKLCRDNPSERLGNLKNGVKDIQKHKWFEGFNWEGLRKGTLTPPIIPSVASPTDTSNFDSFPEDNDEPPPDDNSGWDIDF
Chain of panel of 468 diverse kinases (Homo sapiens, UniProt P06239) (P06239 2-509 limits assumed): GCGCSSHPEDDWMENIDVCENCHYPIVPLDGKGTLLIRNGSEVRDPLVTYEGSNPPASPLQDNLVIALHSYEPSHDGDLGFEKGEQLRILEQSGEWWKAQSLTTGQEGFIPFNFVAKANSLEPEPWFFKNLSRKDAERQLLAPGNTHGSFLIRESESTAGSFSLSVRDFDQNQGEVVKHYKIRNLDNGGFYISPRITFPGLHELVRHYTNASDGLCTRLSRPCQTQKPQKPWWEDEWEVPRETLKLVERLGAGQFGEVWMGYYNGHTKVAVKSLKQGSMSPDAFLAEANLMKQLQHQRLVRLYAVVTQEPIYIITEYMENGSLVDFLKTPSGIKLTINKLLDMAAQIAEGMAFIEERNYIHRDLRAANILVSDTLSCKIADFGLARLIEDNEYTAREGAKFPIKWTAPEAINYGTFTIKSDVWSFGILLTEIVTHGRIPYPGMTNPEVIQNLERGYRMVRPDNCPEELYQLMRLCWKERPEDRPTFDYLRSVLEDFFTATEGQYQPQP
Chain of panel of 468 diverse kinases (Homo sapiens, UniProt O14733) (O14733 2-419 limits assumed): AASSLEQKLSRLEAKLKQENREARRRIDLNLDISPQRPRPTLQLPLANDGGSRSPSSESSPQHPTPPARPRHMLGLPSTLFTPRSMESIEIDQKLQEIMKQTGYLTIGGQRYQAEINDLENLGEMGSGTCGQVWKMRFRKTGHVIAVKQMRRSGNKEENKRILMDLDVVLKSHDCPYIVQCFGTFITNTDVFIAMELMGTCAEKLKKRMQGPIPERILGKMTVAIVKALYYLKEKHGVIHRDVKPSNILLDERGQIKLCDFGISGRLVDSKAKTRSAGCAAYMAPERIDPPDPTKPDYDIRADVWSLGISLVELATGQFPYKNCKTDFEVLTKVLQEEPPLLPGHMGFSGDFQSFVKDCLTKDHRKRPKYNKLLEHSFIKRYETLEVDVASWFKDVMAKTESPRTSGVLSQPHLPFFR
Chain of panel of 468 diverse kinases (Homo sapiens, UniProt P21860) (P21860 20-1342 limits assumed): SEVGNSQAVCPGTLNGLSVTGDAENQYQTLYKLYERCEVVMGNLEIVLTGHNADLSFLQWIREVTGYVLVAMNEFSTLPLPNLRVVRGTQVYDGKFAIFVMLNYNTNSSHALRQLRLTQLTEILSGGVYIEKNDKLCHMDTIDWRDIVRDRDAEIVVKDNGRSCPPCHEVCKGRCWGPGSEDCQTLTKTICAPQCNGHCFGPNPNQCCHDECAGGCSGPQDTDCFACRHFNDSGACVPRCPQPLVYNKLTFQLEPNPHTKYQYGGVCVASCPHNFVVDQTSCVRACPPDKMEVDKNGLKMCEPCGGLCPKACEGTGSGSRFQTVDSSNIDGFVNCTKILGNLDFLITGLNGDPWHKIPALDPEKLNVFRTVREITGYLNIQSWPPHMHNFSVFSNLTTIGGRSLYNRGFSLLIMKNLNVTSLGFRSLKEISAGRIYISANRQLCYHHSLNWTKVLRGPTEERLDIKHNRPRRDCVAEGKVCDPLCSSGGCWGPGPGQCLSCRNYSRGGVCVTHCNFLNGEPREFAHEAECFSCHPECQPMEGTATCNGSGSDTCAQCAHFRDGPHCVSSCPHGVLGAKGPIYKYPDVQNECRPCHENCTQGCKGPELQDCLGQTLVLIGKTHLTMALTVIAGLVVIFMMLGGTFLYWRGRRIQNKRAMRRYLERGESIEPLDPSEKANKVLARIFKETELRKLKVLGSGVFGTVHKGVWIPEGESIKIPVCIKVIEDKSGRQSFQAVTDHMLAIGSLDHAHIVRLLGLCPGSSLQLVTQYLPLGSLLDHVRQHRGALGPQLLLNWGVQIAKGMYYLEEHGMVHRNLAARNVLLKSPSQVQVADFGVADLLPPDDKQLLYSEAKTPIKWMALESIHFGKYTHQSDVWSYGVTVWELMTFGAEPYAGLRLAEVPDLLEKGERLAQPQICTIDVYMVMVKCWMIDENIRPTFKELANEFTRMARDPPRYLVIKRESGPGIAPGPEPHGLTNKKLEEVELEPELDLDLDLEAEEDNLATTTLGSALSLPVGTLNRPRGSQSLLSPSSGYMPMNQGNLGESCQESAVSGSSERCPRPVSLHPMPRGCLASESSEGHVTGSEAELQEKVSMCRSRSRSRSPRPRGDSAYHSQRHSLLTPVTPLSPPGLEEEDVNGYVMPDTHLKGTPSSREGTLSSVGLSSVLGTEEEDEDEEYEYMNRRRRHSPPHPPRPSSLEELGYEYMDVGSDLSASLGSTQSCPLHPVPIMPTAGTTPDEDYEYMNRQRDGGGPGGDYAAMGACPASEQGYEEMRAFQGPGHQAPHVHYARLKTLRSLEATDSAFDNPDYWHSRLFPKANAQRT
Chain of panel of 468 diverse kinases (Homo sapiens, UniProt Q9Y2I7) (Q9Y2I7 2-2098 limits assumed): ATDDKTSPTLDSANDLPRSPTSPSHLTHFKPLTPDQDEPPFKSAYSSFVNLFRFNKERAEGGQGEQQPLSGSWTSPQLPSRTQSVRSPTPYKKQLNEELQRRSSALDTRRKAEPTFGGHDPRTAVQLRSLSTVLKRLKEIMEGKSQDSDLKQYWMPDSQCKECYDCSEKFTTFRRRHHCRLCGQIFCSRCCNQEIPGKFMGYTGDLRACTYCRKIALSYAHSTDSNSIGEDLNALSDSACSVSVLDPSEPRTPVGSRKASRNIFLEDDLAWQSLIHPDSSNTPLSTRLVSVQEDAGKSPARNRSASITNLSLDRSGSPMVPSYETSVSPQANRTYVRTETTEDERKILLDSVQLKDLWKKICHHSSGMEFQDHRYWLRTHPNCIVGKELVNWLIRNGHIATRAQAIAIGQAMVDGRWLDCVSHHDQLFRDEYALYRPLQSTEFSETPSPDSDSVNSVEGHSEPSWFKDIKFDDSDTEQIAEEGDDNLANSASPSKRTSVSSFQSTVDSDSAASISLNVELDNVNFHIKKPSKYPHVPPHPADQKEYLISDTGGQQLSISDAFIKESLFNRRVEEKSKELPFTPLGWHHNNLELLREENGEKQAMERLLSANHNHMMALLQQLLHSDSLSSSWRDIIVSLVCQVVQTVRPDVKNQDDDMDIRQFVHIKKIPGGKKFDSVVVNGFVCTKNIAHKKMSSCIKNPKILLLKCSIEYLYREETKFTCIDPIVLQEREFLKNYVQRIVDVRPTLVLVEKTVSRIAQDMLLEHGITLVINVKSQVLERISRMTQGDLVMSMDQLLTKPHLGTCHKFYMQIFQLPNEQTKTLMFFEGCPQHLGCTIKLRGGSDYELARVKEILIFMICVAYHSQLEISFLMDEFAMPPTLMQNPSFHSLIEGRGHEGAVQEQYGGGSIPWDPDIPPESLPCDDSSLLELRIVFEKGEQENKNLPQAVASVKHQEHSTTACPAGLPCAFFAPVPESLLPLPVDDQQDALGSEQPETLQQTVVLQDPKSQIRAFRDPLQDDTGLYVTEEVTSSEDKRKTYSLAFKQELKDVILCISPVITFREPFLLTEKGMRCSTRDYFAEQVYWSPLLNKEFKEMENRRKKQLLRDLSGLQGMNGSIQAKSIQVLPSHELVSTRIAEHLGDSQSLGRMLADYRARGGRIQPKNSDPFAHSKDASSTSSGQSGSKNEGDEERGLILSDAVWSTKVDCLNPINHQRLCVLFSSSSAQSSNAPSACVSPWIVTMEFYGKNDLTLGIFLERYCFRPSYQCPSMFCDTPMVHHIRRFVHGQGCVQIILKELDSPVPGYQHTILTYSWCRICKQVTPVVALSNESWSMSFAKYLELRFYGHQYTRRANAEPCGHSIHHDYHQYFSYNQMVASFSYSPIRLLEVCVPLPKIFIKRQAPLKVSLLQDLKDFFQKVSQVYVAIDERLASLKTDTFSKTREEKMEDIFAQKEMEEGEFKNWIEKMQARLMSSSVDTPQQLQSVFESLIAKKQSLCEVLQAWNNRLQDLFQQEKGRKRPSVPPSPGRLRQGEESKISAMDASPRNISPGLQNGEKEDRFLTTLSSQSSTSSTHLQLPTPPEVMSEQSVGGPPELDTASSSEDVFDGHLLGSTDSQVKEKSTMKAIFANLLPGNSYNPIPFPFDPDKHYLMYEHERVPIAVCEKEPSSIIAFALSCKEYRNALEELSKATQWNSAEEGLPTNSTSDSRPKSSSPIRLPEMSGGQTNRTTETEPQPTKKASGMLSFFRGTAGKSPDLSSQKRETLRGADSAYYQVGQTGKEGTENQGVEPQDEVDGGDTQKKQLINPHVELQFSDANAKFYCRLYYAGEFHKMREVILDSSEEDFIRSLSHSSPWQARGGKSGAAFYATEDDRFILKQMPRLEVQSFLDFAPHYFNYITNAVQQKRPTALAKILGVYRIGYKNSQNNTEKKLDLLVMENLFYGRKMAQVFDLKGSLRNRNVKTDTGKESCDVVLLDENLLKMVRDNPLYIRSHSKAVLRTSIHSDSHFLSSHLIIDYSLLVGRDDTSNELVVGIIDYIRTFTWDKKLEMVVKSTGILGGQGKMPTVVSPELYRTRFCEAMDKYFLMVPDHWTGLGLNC

## COc1cc2nc(NC3CC3)nc(NC3CCN(C(C)C)CC3)c2cc1OC [Formula IV]
[1]
  remaining activity at 1 µM: 98%
[2]
  remaining activity at 1 µM: 72%
[3]
  remaining activity at 1 µM: 84%
[4]
  remaining activity at 1 µM: 78%
[5]
  remaining activity at 1 µM: 50%
[6]; ABL1 (F317L)-nonpho sphorylated
  remaining activity at 1 µM: 82%
[6]; ABL1(F317L)-phosphorylated
  remaining activity at 1 µM: 40%
[7]
  remaining activity at 1 µM: 100%
[8]
  remaining activity at 1 µM: 50%
[9]
  remaining activity at 1 µM: 59%
[10]
  remaining activity at 1 µM: 96%
[11]
  remaining activity at 1 µM: 64%
[12]
  remaining activity at 1 µM: 70%
[13]
  remaining activity at 1 µM: 100%
[14]
  remaining activity at 1 µM: 100%
[15]
  remaining activity at 1 µM: 100%
[16]
  remaining activity at 1 µM: 100%
[17]
  remaining activity at 1 µM: 95%
[18]
  remaining activity at 1 µM: 96%
[19]
  remaining activity at 1 µM: 91%
[20]
  remaining activity at 1 µM: 89%
[21]
  remaining activity at 1 µM: 55%
[22]
  remaining activity at 1 µM: 90%
[23]
  remaining activity at 1 µM: 83%
[24]
  remaining activity at 1 µM: 99%
[25]
  remaining activity at 1 µM: 58%
[26]
  remaining activity at 1 µM: 81%
[27]
  remaining activity at 1 µM: 100%
[28]
  remaining activity at 1 µM: 74%
[29]
  remaining activity at 1 µM: 84%
[30]
  remaining activity at 1 µM: 100%
[31]
  remaining activity at 1 µM: 94%
